# Assay results: PMC8584011, “Immunomodulatory Lectin-like Peptides for Fish Erythrocytes-Targeting as Potential Antiviral Drug Delivery Platforms” (International Journal of Molecular Sciences, 2021)
# How the values were obtained:
# [1] = test system: rainbow trout RBCs; test: In vitro binding of Rhd-labeled peptides to RBCs, flow cytometry (iMFI); type: cell-based, rainbow trout (Oncorhynchus mykiss); settings: 100 µM Rhd-labeled peptide, 90 min at 14 °C, 10^5 cells/well, mean ± SD n = 3, ranking of peptides
# Method: In order to evaluate the binding of the peptides for RBCs, we carried out a dose-response assay using a concentration range from 25 to 100 µM. The binding of the Rhodamine (Rhd)-labeled peptides was evaluated by means of flow cytometry and calculated as the integrated median fluorescence intensity (iMFI), which is computed by multiplying the relative frequency (% positive) of cells with the median fluorescence intensity (MFI) of that population. […] Besides, hemagglutination was not observed at the concentrations of peptides used (Supplementary Figure S1). Cell toxicity was not observed neither in vitro nor in vivo at the maximum concentration of peptides used (Supplementary Figure S2).
# Figure 1 Peptide binding to rainbow trout RBCs in vitro, evaluated by means of flow cytometry. (a) Integrated median fluorescence intensity (iMFI) (% positive cells × MFI) of rainbow trout RBCs treated with different peptide concentrations, 90 min after incubation, analyzed by flow cytometry. Data represent the mean ± standard deviation (SD), n = 3. […]
# Ficoll-purified RBCs (10^5 cells/well) were treated with 25, 50, and 100 µM of 4341, 4342, 4343 Rhd-labeled peptides, and incubated for 90 min at 14 °C. Then, RBCs were washed with 200 µL of RPMI 2% FBS and analyzed by flow cytometry, fluorescent microscopy, and confocal microscopy as described below (Figure 5). […]
# [2] = test system: rainbow trout RBCs; test: Confocal microscopy of peptide-RBC binding / presence inside the cell; type: cell-based, rainbow trout (Oncorhynchus mykiss); settings: 90 min incubation with Rhd-labeled peptides, Hoechst and CellMask Green staining
# Method: Figure 2 Volume 3D reconstruction of the visualization of the peptides binding to rainbow trout RBCs. Rhd-labeled peptides are represented in red, nuclei were stained with Hoescht and are represented in blue, and cell membrane was stained using CellMask Green and is represented in beige. The images were taken at 63× magnification. Confocal images were processed using the ZEN 3.2 (Blue edition). Volume rendering was performed with IMARIS v9.3. Upper images represent plan view and lower images represent perspective view.
# Confocal microscopy was performed to evaluate peptide-RBCs binding in vitro. After 90 min of incubation with Rhd-labeled peptides, RBCs were washed, and nuclei were stained with Hoechst (1 μg/mL) (Sigma-Aldrich) and membrane was stained with CellMask Green (5 μg/mL) (Thermo Fischer Scientific). Images were taken with a Zeiss LSM900 with Airyscan 2 and analyzed with ZEN 3.2 (Blue edition) software (Zeiss, Oberkochen, Germany). Volume rendering was performed using IMARIS Software v9.3 (Bitplane, Zurich, Switzerland).
# [3] = test system: rainbow trout RBCs; test: Antiviral gene expression in RBCs by RT-qPCR; type: cell-based, rainbow trout (Oncorhynchus mykiss); settings: 50 µM peptide, 6 h post-treatment at 14 °C, normalized to ef1α, relative to untreated RBCs
# Method: Figure 3 Antiviral immunomodulation of the peptides in rainbow trout RBCs. Antiviral gene (ifit5, mx1-3, nkef, and vig1) expression quantified by RT-qPCR in RBCs at 6 h post-treatment (hpt) with 50 µM of each peptide. Gene expression was normalized against ef1α and relativized to control cells (RBCs untreated) (red line). Data represent the mean ± standard deviation (SD), n = 4. Mann–Whitney test was performed (* p < 0.05).
# To evaluate the possible antiviral immunomodulatory effects of the peptides, ficoll-purified RBCs (10^6 cells/well) were incubated with 50 µM of 4341, 4342, 4343 Rhd-labeled peptides for 6 h at 14 °C. After that, RBCs were washed, and samples were stored in buffer for RNA extraction and RT-qPCR analysis (Figure 5).
# The E.Z.N.A.® Total RNA Kit (Omega Bio-Tek Inc., Norcross, GA, USA) was used for RNA isolation according to the manufacturer’s instructions. Subsequent DNAse treatment was done using TURBO™ DNase (Ambion, Thermo Fisher Scientific, Waltham, MA USA) to eliminate possible residual genomic DNA. RNA was quantified with a NanoDrop Spectrophotometer (Nanodrop Technologies, Wilmington, DE, USA). Then, cDNA synthesis from RNA was performed using M-MLV reverse transcriptase (Invitrogen, Thermo Fisher Scientific) as previously described.
# To evaluate the gene expression of RBCs treated with 50 µM of the three Rhd-labeled peptides, RT-qPCR was carried out using the QUANTSTUDIO 3 System (Applied Biosystems, Thermo Fisher Scientific Inc.). Gene expression was analyzed by the 2^–ΔΔCt method. The ef1α gene was used as endogenous control.
# [4] = test system: rainbow trout RBCs; test: In vivo binding of peptides to RBCs after i.v. injection, flow cytometry (iMFI); parameters: species or system rainbow trout (Oncorhynchus mykiss); settings: i.v. injection of 100 µM peptide in 50 µL, peripheral blood at 3 hpi, mean ± SD n = 3, ranking of peptides
# Method: Figure 4 Peptide binding to rainbow trout RBCs in vivo, by means of flow cytometry. (a) Integrated median fluorescence intensity (iMFI) (% positive cells × MFI) of RBCs from blood of rainbow trout injected intravenously with the three selected peptides, 3 hpi with 100 µM of each peptide, analyzed by flow cytometry. Data represent the mean ± standard deviation (SD), n = 3. Kruskal–Wallis test with Dunn’s multiple comparison test was performed (p < 0.05). C means control RBCs. (b) Representative images of RBCs from blood of rainbow trout injected intravenously with the three selected peptides, 3 hpi with 100 µM of each peptide. The images were taken with the IN Cell Analyzer 6000 Cell Imaging system at 40× magnification. Peptides are labeled with Rhd (red). […]
# Juvenile rainbow trout (7–10 g) were anesthetized with tricaine methanesulfonate, (Sigma-Aldrich, Madrid, Spain) (40 mg/L) and injected intravenously (i.v) with 100 µM of 4341, 4342, 4343 Rhd-labeled peptides in 50 µL of RMPI 2% FBS using insulin syringes. […] Then, blood samples were evaluated by means of flow cytometry and fluorescent microscopy as described below (Figure 6).
# RBCs treated in vitro with the Rhd-labeled peptides and blood samples from individuals of rainbow trout injected with the three Rhd-labeled peptides were analyzed by flow cytometry using a FACS Canto II flow cytometer (BD Biosciences, Madrid, Spain). […]
# [5] = test system: human RBCs; settings: cited from earlier work
# Text: (§1) Among the identified peptides in the literature, we selected three peptides based on their reported affinity to bind nucleated RBCs or mammalian RBCs. […] This peptide will be named in this article as 4341. Another selected peptide is a small peptide with lectin-like behavior, called odorranalectin (hereafter referred ...
# [6] = test system: rabbit RBCs; settings: cited from earlier work
# Text: as §1
# [7] = cited from earlier work
# Text: In addition, our selected peptides were mainly found inside RBCs, instead of at the surface of the RBCs, as observed by confocal microscopy. […] In this contex ...
substance,measurement,setting,value
"Rhd-YASPKCFRYPNGVLACT [compound 4342, odorranalectin, Rhd-labeled small peptide with lectin-like behavior, called odorranalectin]",Binding to RBCs (iMFI = % positive cells × MFI),[1],highest binding
same,Presence of peptide inside the cell,[2],higher
same,mx1-3 gene expression,[3]; n = 4,slight and not statistically significant upregulation
same,ifit5 gene expression,"[3]; n = 4, Mann–Whitney p < 0.05",statistically significantly upregulated
same,nkef gene expression,"[3]; n = 4, not statistically significant",upregulated
same,Binding to RBCs in vivo (iMFI = % positive cells × MFI),[4],highest iMFI
same,Binding to human RBCs,[5],bind
same,Binding to rabbit RBCs,[6],bind
same,Stability in circulation,[7],high stability in circulation
